{
  "source": "patent US8987212B2",
  "about": "“Oleanoyl peptide composition and method of treating skin aging” (priority 2007, dated 2015)",
  "key": {"[1]": {"experiment": "DPPH free radical scavenging assay", "description": "The DPPH assay is often used to evaluate the ability of antioxidants to scavenge free radicals which are known to be a major factor in biological damages caused by oxidative stress. This assay is known to give reliable information concerning the antioxidant ability of the tested compounds. The assay is based on the color change of the stable free radical DPPH from purple to yellow as the radical is quenched by the antioxidant.\nThe assay mixture tubes containing 1.5 ml of 0.1 mM DPPH methanolic solution and varying concentrations of the sample in a total volume of 3 ml were incubated at 37° C. for 30 minutes in a shaking water bath. The reduction in absorbance which is directly proportional to the radical scavenging is measured spectrophotometrically at 517 nm. […] The percentage of scavenging is calculated as follows, % scavenging=[(C−T)/C]×100 Where C=absorbance in the absence of inhibitor\nT=absorbance in the presence of inhibitor"}, "TNF α": {"system": "TNF α", "experiment": "TNF α inhibition in LPS-stimulated human whole blood (ELISA)", "format": "cell-based", "settings": "human whole blood, LPS 1 ng/mL", "source_text": "For TNF α inhibitory study, human whole blood is used. In whole blood assay, monocytes appear to be the main source of TNF-α on lipopolysaccharide (LPS) stimulation. Monocyte and macrophages are a major source of TNF-α in addition to other cell types like eosinophils, mast cells, peripheral lymphocytes and granulocytes. The activation of inflammatory cells is influenced by the intracellular levels of c-AMP which are regulated by the phosphodiesterase isoenzyme. […] After stimulation, the assay employs the quantitative sandwich enzyme immunoassay technique. A monoclonal antibody specific for TNF-α has been pre-coated onto a microplate. TNF-α present in the sample is bound by the immobilized antibody. After washing away any unbound substances, an enzyme-linked polyclonal antibody specific for TNF-α is added. Following a wash to remove any unbound antibody-enzyme reagent, a substrate solution is added to the wells and colour develops in proportion to the amount of TNF-α bound in the initial step. The colour development is stopped and the intensity of the colour is directly proportional to the TNF-α content.\nHeparinized blood from healthy donors was diluted 1:3 in RPMI 1640 culture medium containing 10% FBS. […] 0.1% DMSO was used as vehicle for water insoluble samples. After pre-incubation, the whole blood cells were stimulated by 1 ng/mL LPS for the release of TNF α from the macrophages by incubating for 5 hr at 37° C. in an incubator with 5% COP. The samples were then centrifuged at 3000 g for 3 minutes at 4° C. and the supernatant was assayed for TNF α content by using the TNF α Elisa kit. 200 μL of supernatant from all the tubes was transferred into microtiter plate in respective wells (Pre-coated mouse monoclonal antibody microplate) followed by the addition of 50 μL of assay diluents in all the wells. After incubation for 2 hr at room temperature, the wells were washed thoroughly with wash buffer provided and then 200 μL of conjugate was added to each well. The plate was incubated for 2 hr at room temperature. After washing again, 200 μL of substrate solution was added to each well and incubated for 20 minutes at room temperature. 50 μL of Stop Solution to each well which will cause the colour change in the wells from blue to yellow was added. The optical density was read at 450 nm which is directly proportional to TNF α content and the percentage of inhibition of TNF α content on treatment with sample was calculated with respect to that of the untreated cells.\nT=absorbance due to TNF α in the presence of inhibitor"}, "LTB4": {"system": "LTB4", "experiment": "LTB4 inhibition (same procedure as TNF α)", "format": "cell-based, human", "settings": "at 0.625 μg/ml", "source_text": "The above procedure is also followed for determining LTB4 inhibition by Oleanoyl peptide. From the results tabulated in table 1, it is clear that Oleanoyl peptide is a better TNF α and LTB4 inhibitor."}, "Interleukin-6 (IL-6)": {"system": "Interleukin-6 (IL-6)", "experiment": "Extracellular IL-6 from LPS-challenged human neutrophils", "format": "cell-based", "settings": "for % activity IL-6 expression against LPS control: ↓ = inhibition", "description": "(§1) Experimental observations were made in human neutrophil that were challenged with LPS. […] Rolipram at 100 μg/ml dose level was used as a standard drug to observe the authenticity and reproducibility of the experimental design."}, "Nitric Oxide (NO)": {"system": "Nitric Oxide (NO)", "experiment": "Extracellular nitric oxide from LPS-challenged human neutrophils", "format": "cell-based", "settings": "for % activity NO expression against LPS control: ↓ = inhibition", "description": "as §1\nThe Oleanoyl peptide was also screened for NO and PGE2 expression."}, "human skin": {"system": "human skin", "experiment": "Effect of Oleanoyl peptide cream on human facial skin", "format": "in vivo", "settings": "cream with Oleanoyl peptide (0.01%), twice daily, three weeks, photographs", "description": "To study the potential effect of Oleanoyl peptide on human skin, candidates were selected in-house whose age ranging from about 30 to 60 with moderate to severe signs of aging. A topical composition comprising Oleanoyl peptide (0.01%) was prepared as a cream for application on the skin.\nThe cream containing Oleanoyl peptide was applied on the affected areas of facial skin of the candidates twice daily for a continuous period of three weeks. Photographs of the candidates were taken before and after three weeks of application of the cream."}},
  "note": "Where a SMILES comes first, the peptide text is derived from it. The star is where a group is joined. X1 = CC1(C)CC[C@]2(C(=O)*)CC[C@]3(C)C(=CCC4[C@@]5(C)CC[C@H](O)C(C)(C)C5CC[C@]43C)C2C1",
  "data": [
    {"smiles": "C[C@@H](O)[C@H](NC(=O)[C@H](CCCCN)NC(=O)[C@]12CCC(C)(C)CC1C1=CCC3[C@@]4(C)CC[C@H](O)C(C)(C)C4CC[C@@]3(C)[C@]1(C)CC2)C(=O)N[C@H](C(=O)N[C@@H](CCCCN)C(=O)N[C@@H](CO)C(=O)O)[C@@H](C)O", "note": "(stereo partly drawn) [Oleanoyl peptide, Oleanoyl-Lys-Thr-Thr-Lys-Ser-OH] (X1-KTTKS-OH)", "values": [
      {"measurement": "Anti-oxidant activity by DPPH Method, % inhibition", "setting": "[1]; at 300 μg/ml", "result": 29, "unit": "% inhibition at 300"},
      {"measurement": "Anti-oxidant activity by DPPH Method", "setting": "[1]; result in words", "result": "shows DPPH scavenging activity"},
      {"measurement": "TNF α inhibition (IC50 μg/ml)", "setting": "TNF α", "result": 21, "unit": "µg/mL"},
      {"measurement": "LTB4 inhibition, % inhibition", "setting": "LTB4", "result": 26, "unit": "%"},
      {"measurement": "Concentration of IL-6 produced (pg/ml) Mean ± S.E.", "setting": "Interleukin-6 (IL-6); test sample 0.125 μg/ml", "result": "130.38 ± 2.11", "unit": "pg/mL"},
      {"measurement": "Concentration of IL-6 produced (pg/ml) Mean ± S.E.", "setting": "Interleukin-6 (IL-6); test sample 0.25 μg/ml", "result": "123.92 ± 2.09", "unit": "pg/mL"},
      {"measurement": "Concentration of IL-6 produced (pg/ml) Mean ± S.E.", "setting": "Interleukin-6 (IL-6); test sample 0.5 μg/ml", "result": "117.23 ± 2.84", "unit": "pg/mL"},
      {"measurement": "Concentration of IL-6 produced (pg/ml) Mean ± S.E.", "setting": "Interleukin-6 (IL-6); test sample 1 μg/ml", "result": "106.81 ± 3.79", "unit": "pg/mL"},
      {"measurement": "Concentration of IL-6 produced (pg/ml) Mean ± S.E.", "setting": "Interleukin-6 (IL-6); test sample 2 μg/ml", "result": "104.75 ± 5.31", "unit": "pg/mL"},
      {"measurement": "Concentration of IL-6 produced (pg/ml) Mean ± S.E.", "setting": "Interleukin-6 (IL-6); test sample 4 μg/ml", "result": "101.11 ± 2.87", "unit": "pg/mL"},
      {"measurement": "% activity IL-6 expression against LPS control", "setting": "Interleukin-6 (IL-6); test sample 0.125 μg/ml", "result": "8.33↓ %"},
      {"measurement": "% activity IL-6 expression against LPS control", "setting": "Interleukin-6 (IL-6); test sample 0.25 μg/ml", "result": "12.87↓ %"},
      {"measurement": "% activity IL-6 expression against LPS control", "setting": "Interleukin-6 (IL-6); test sample 0.5 μg/ml", "result": "17.58↓ %"},
      {"measurement": "% activity IL-6 expression against LPS control", "setting": "Interleukin-6 (IL-6); test sample 1 μg/ml", "result": "24.90↓ %"},
      {"measurement": "% activity IL-6 expression against LPS control", "setting": "Interleukin-6 (IL-6); test sample 2 μg/ml", "result": "26.35↓ %"},
      {"measurement": "% activity IL-6 expression against LPS control", "setting": "Interleukin-6 (IL-6); test sample 4 μg/ml", "result": 28.03, "unit": "%"},
      {"measurement": "% activity IL-6 expression against LPS control", "setting": "Interleukin-6 (IL-6); test sample 4 μg/ml, listed as OP", "result": "28.91↓ %"},
      {"measurement": "Concentration of NO produced (μmol/ml) Mean ± S.E.", "setting": "Nitric Oxide (NO); test sample 0.125 μg/ml", "result": "42.77 ± 1.42", "unit": "µmol/mL"},
      {"measurement": "Concentration of NO produced (μmol/ml) Mean ± S.E.", "setting": "Nitric Oxide (NO); test sample 0.25 μg/ml", "result": "41.21 ± 1.05", "unit": "µmol/mL"},
      {"measurement": "Concentration of NO produced (μmol/ml) Mean ± S.E.", "setting": "Nitric Oxide (NO); test sample 0.5 μg/ml", "result": "39.25 ± 1.08", "unit": "µmol/mL"},
      {"measurement": "Concentration of NO produced (μmol/ml) Mean ± S.E.", "setting": "Nitric Oxide (NO); test sample 1 μg/ml", "result": "34.12 ± 2.00", "unit": "µmol/mL"},
      {"measurement": "Concentration of NO produced (μmol/ml) Mean ± S.E.", "setting": "Nitric Oxide (NO); test sample 2 μg/ml", "result": "30.21 ± 1.18", "unit": "µmol/mL"},
      {"measurement": "% activity NO expression against LPS control", "setting": "Nitric Oxide (NO); test sample 0.125 μg/ml", "result": "3.51↓ %"},
      {"measurement": "% activity NO expression against LPS control", "setting": "Nitric Oxide (NO); test sample 0.25 μg/ml", "result": "7.03↓ %"},
      {"measurement": "% activity NO expression against LPS control", "setting": "Nitric Oxide (NO); test sample 0.5 μg/ml", "result": "11.45↓ %"},
      {"measurement": "% activity NO expression against LPS control", "setting": "Nitric Oxide (NO); test sample 1 μg/ml", "result": "23.03↓ %"},
      {"measurement": "% activity NO expression against LPS control", "setting": "Nitric Oxide (NO); test sample 2 μg/ml", "result": 31.85, "unit": "%"},
      {"measurement": "% activity NO expression against LPS control", "setting": "Nitric Oxide (NO); test sample 2 μg/ml, listed as OP", "result": "31.85↓ %"},
      {"measurement": "% activity NO expression against LPS control", "setting": "Nitric Oxide (NO); test sample 4 μg/ml", "result": "29.66↓ %"},
      {"measurement": "effect on dark circles under the eye", "setting": "human skin", "result": "reduction of dark circles under the eye"},
      {"measurement": "effect on hyperpigmentation", "setting": "human skin", "result": "reduction in hyperpigmentation"},
      {"measurement": "effect on skin thickness", "setting": "human skin", "result": "improvement in skin thickness"},
      {"measurement": "effect on wrinkles", "setting": "human skin", "result": "wrinkles are softened"}
    ]}
  ]
}
